# Source: publication PMC12207908, “The broad‐spectrum antimicrobial peptide BMAP‐27B potentiates carbapenems against NDM‐producing pathogens in food animals” (mLife, 2025)
# Legend:
# CRAB1 = experiment: MIC, broth microdilution; type: cell-based; conditions: Acinetobacter baumannii, MHB, 1 × 10^6 CFU/ml, 16–18 h, 37°C, independent triplicates
# Procedure: (§1) The MIC of BMAP‐27B and other antibiotics was determined using the broth microdilution method, following the guidelines established by the Clinical and Laboratory Standards Institute (CLSI). Briefly, the bacterial cultures were grown to the logarithmic growth phase and subsequently diluted in Mueller–Hinton broth (MHB) to achieve a final concentration of 1 × 10^6 CFU/ml. BMAP‐27B and the other antibiotics were prepared in twofold serial dilutions in MHB and mixed with an equal volume of bacterial suspension in 96‐well polypropylene microtiter plates.
# CRAB2 = experiment: MIC, broth microdilution; type: cell-based; conditions: Acinetobacter baumannii, MHB, 1 × 10^6 CFU/ml, 16–18 h, 37°C, independent triplicates
# Procedure: as §1
# CRCB1 = experiment: MIC, broth microdilution; type: cell-based; conditions: Citrobacter, MHB, 1 × 10^6 CFU/ml, 16–18 h, 37°C, independent triplicates
# Procedure: as §1
# CRCB2 = experiment: MIC, broth microdilution; type: cell-based; conditions: Citrobacter, MHB, 1 × 10^6 CFU/ml, 16–18 h, 37°C, independent triplicates
# Procedure: as §1
# CRCB3 = experiment: MIC, broth microdilution; type: cell-based; conditions: Citrobacter, MHB, 1 × 10^6 CFU/ml, 16–18 h, 37°C, independent triplicates
# Procedure: as §1
# CREC1 = experiment: MIC, broth microdilution; type: cell-based; conditions: Escherichia coli, MHB, 1 × 10^6 CFU/ml, 16–18 h, 37°C, independent triplicates
# Procedure: as §1
# CREC2 = experiment: MIC, broth microdilution; type: cell-based; conditions: Escherichia coli, MHB, 1 × 10^6 CFU/ml, 16–18 h, 37°C, independent triplicates
# Procedure: as §1
# CREC3 = experiment: MIC, broth microdilution; type: cell-based; conditions: Escherichia coli, MHB, 1 × 10^6 CFU/ml, 16–18 h, 37°C, independent triplicates
# Procedure: as §1
# CREC4 = experiment: MIC, broth microdilution; type: cell-based; conditions: Escherichia coli, MHB, 1 × 10^6 CFU/ml, 16–18 h, 37°C, independent triplicates
# Procedure: as §1
# CREC5 = experiment: MIC, broth microdilution; type: cell-based; conditions: Escherichia coli, MHB, 1 × 10^6 CFU/ml, 16–18 h, 37°C, independent triplicates
# Procedure: as §1
# CREC6 = experiment: MIC, broth microdilution; type: cell-based; conditions: Escherichia coli, MHB, 1 × 10^6 CFU/ml, 16–18 h, 37°C, independent triplicates
# Procedure: as §1
# CREC7 = experiment: MIC, broth microdilution; type: cell-based; conditions: Escherichia coli, MHB, 1 × 10^6 CFU/ml, 16–18 h, 37°C, independent triplicates
# Procedure: as §1
# CRKP1 = experiment: MIC, broth microdilution; type: cell-based; conditions: Klebsiella pneumoniae, MHB, 1 × 10^6 CFU/ml, 16–18 h, 37°C, independent triplicates
# Procedure: as §1
# CRKP2 [1] = experiment: MIC, broth microdilution; type: cell-based; conditions: Klebsiella pneumoniae, MHB, 1 × 10^6 CFU/ml, 16–18 h, 37°C, independent triplicates
# Procedure: as §1
# CRKP3 = experiment: MIC, broth microdilution; type: cell-based; conditions: Klebsiella pneumoniae, MHB, 1 × 10^6 CFU/ml, 16–18 h, 37°C, independent triplicates
# Procedure: as §1
# CRKP4 = experiment: MIC, broth microdilution; type: cell-based; conditions: Klebsiella pneumoniae, MHB, 1 × 10^6 CFU/ml, 16–18 h, 37°C, independent triplicates
# Procedure: as §1
# CRKP5 = experiment: MIC, broth microdilution; type: cell-based; conditions: Klebsiella pneumoniae, MHB, 1 × 10^6 CFU/ml, 16–18 h, 37°C, independent triplicates
# Procedure: as §1
# CRKP6 = experiment: MIC, broth microdilution; type: cell-based; conditions: Klebsiella pneumoniae, MHB, 1 × 10^6 CFU/ml, 16–18 h, 37°C, independent triplicates
# Procedure: as §1
# [2] = system: En. faecium (Clinical; MDR; pig, faeces), lower row; experiment: MIC, broth microdilution; type: cell-based; conditions: Enterococcus faecium, En. faecium clinical MDR isolate, MHB, 16–18 h, 37°C, independent triplicates
# Procedure: as §1
# [3] = system: En. faecium (Clinical; MDR; pig, faeces), upper row; experiment: MIC, broth microdilution; type: cell-based; conditions: Enterococcus faecium, En. faecium clinical MDR isolate, MHB, 16–18 h, 37°C, independent triplicates
# Procedure: as §1
# P. aeruginosa UCBPP-PA01 = experiment: MIC, broth microdilution; type: cell-based; conditions: Pseudomonas aeruginosa, UCBPPPA01, MHB, 1 × 10^6 CFU/ml, 16–18 h, 37°C, independent triplicates
# Procedure: as §1
# P. aeruginosa UCBPP-PA14 = experiment: MIC, broth microdilution; type: cell-based; conditions: Pseudomonas aeruginosa, MHB, 1 × 10^6 CFU/ml, 16–18 h, 37°C, independent triplicates
# Procedure: as §1
# PRCB1 = experiment: MIC, broth microdilution; type: cell-based; conditions: Citrobacter, MHB, 1 × 10^6 CFU/ml, 16–18 h, 37°C, independent triplicates
# Procedure: as §1
# PREC1 = experiment: MIC, broth microdilution; type: cell-based; conditions: Escherichia coli, MHB, 1 × 10^6 CFU/ml, 16–18 h, 37°C, independent triplicates
# Procedure: as §1
# PREC2 = experiment: MIC, broth microdilution; type: cell-based; conditions: Escherichia coli, MHB, 1 × 10^6 CFU/ml, 16–18 h, 37°C, independent triplicates
# Procedure: as §1
# PREC3 = experiment: MIC, broth microdilution; type: cell-based; conditions: Escherichia coli, MHB, 1 × 10^6 CFU/ml, 16–18 h, 37°C, independent triplicates
# Procedure: as §1
# S. aureus ATCC = experiment: MIC, broth microdilution; type: cell-based; conditions: Staphylococcus aureus, MHB, 1 × 10^6 CFU/ml, 16–18 h, 37°C, independent triplicates
# Procedure: as §1
# Salmonella SL1344 = experiment: MIC, broth microdilution; type: cell-based; conditions: MHB, 1 × 10^6 CFU/ml, 16–18 h, 37°C, independent triplicates
# Procedure: as §1
# CRKP2 [4] = experiment: Mouse peritonitis model induced by CRKP2; type: in vivo, BALB/c mice; conditions: 1.0 × 10^8 CFU CRKP2 i.p.; treatment at 1 and 6 h; BMAP‐27B 3, 6 or 9 mg/kg, MEM 10 mg/kg, combination 3 + 10 mg/kg; tissues 24 h after infection
# Procedure: Male BALB/c mice were used in this study, with six mice per group. The mice were infected via an intraperitoneal injection with a suspension of 1.0 × 10^8 CFU of CRKP2. At 1 and 6 h postinfection, the mice were treated with PBS, BMAP‐27B at doses of 3, 6, or 9 mg/kg, MEM at 10 mg/kg alone, or a combination of BMAP‐27B (3 mg/kg) and MEM (10 mg/kg). After 24 h of bacterial challenge, the surviving mice were euthanized by cervical dislocation. The kidneys, livers, spleens, and lungs of each mouse were harvested within […] postinfection. A portion of these organs was taken for histologic analysis using H&E staining, while the remaining tissue samples were weighed, homogenized in sterile normal saline, and serially diluted in saline. A volume of 100 µl of the homogenate dilutions was uniformly plated onto agar plates containing MEM (8 μg/ml). After overnight incubation at 37°C, colonies were counted and the results were expressed as CFU/g.
SMILES,MIC (CRAB1),MIC (CRAB2),MIC (CRCB1),MIC (CRCB2),MIC (CRCB3),MIC (CREC1),MIC (CREC2),MIC (CREC3),MIC (CREC4),MIC (CREC6),MIC (CREC7),MIC [2],MIC [3],MIC (P. aeruginosa UCBPP-PA01),MIC (P. aeruginosa UCBPP-PA14),MIC (PREC1),MIC (PREC2),MIC (PREC3),MIC (S. aureus ATCC),MIC (Salmonella SL1344),also measured
"CN(C)[C@@H]1C(O)=C(C(N)=O)C(=O)[C@@]2(O)C(O)=C3C(=O)c4c(O)cccc4[C@@](C)(O)[C@H]3C[C@@H]12 [TET, tetracycline]",> 32 µg/mL,> 32 µg/mL,> 32 µg/mL,> 32 µg/mL,> 32 µg/mL,> 32 µg/mL,> 32 µg/mL,> 32 µg/mL,> 32 µg/mL,> 32 µg/mL,> 32 µg/mL,> 32 µg/mL,> 32 µg/mL,16 µg/mL,16 µg/mL,> 32 µg/mL,> 32 µg/mL,> 32 µg/mL,< 1 µg/mL,4 µg/mL,MIC (CREC5): > 32 µg/mL; MIC (CRKP1): > 32 µg/mL; MIC (CRKP2 [1]): > 32 µg/mL; MIC (CRKP3): > 32 µg/mL; MIC (CRKP4): > 32 µg/mL; MIC (CRKP5): > 32 µg/mL; MIC (CRKP6): 32 µg/mL; MIC (PRCB1): > 32 µg/mL
"CNC(C)C1CCC(N)C(OC2C(N)CC(N)C(OC3OCC(C)(O)C(NC)C3O)C2O)O1 (stereo not shown) [GEN, gentamicin]",> 32 µg/mL,> 32 µg/mL,–,–,–,> 32 µg/mL,> 32 µg/mL,> 32 µg/mL,> 32 µg/mL,> 32 µg/mL,–,32 µg/mL,8 µg/mL,–,2 µg/mL,> 32 µg/mL,> 32 µg/mL,2 µg/mL,2 µg/mL,4 µg/mL,–
"NCC[C@H](O)C(=O)N[C@@H]1C[C@H](N)[C@@H](O[C@H]2O[C@H](CN)[C@@H](O)[C@H](O)[C@H]2O)[C@H](O)[C@H]1O[C@H]1O[C@H](CO)[C@@H](O)[C@H](N)[C@H]1O [AMK, amikacin]",> 32 µg/mL,> 32 µg/mL,4 µg/mL,–,8 µg/mL,2 µg/mL,4 µg/mL,2 µg/mL,4 µg/mL,16 µg/mL,2 µg/mL,–,16 µg/mL,2 µg/mL,–,2 µg/mL,8 µg/mL,2 µg/mL,8 µg/mL,–,–
"CC(C)(O/N=C(\C(=O)N[C@@H]1C(=O)N2C(C(=O)[O-])=C(C[n+]3ccccc3)CS[C@H]12)c1csc(N)n1)C(=O)O [CAZ, ceftazidime]",> 32 µg/mL,> 32 µg/mL,> 32 µg/mL,> 32 µg/mL,> 32 µg/mL,> 32 µg/mL,> 32 µg/mL,> 32 µg/mL,> 32 µg/mL,> 32 µg/mL,> 32 µg/mL,> 32 µg/mL,> 32 µg/mL,2 µg/mL,2 µg/mL,> 32 µg/mL,> 32 µg/mL,16 µg/mL,4 µg/mL,< 1 µg/mL,MIC (CREC5): > 32 µg/mL; MIC (CRKP1): > 32 µg/mL; MIC (CRKP2 [1]): > 32 µg/mL; MIC (CRKP3): > 32 µg/mL; MIC (CRKP4): > 32 µg/mL; MIC (CRKP5): > 32 µg/mL; MIC (CRKP6): > 32 µg/mL; MIC (PRCB1): > 32 µg/mL
"CC1(C)S[C@@H]2[C@H](NC(=O)[C@H](N)c3ccccc3)C(=O)N2[C@H]1C(=O)O [AMP, ampicillin]",> 32 µg/mL,> 32 µg/mL,> 32 µg/mL,> 32 µg/mL,> 32 µg/mL,> 32 µg/mL,> 32 µg/mL,> 32 µg/mL,> 32 µg/mL,> 32 µg/mL,> 32 µg/mL,> 32 µg/mL,32 µg/mL,> 32 µg/mL,> 32 µg/mL,> 32 µg/mL,> 32 µg/mL,> 32 µg/mL,4 µg/mL,8 µg/mL,MIC (CREC5): > 32 µg/mL; MIC (CRKP1): > 32 µg/mL; MIC (CRKP2 [1]): > 32 µg/mL; MIC (CRKP3): > 32 µg/mL; MIC (CRKP4): > 32 µg/mL; MIC (CRKP5): > 32 µg/mL; MIC (CRKP6): > 32 µg/mL; MIC (PRCB1): > 32 µg/mL
"C[C@@H](O)[C@H]1C(=O)N2C(C(=O)O)=C(SCCN=CN)C[C@H]12 [IMP, imipenem]",> 32 µg/mL,> 32 µg/mL,> 32 µg/mL,32 µg/mL,8 µg/mL,> 32 µg/mL,> 32 µg/mL,32 µg/mL,> 32 µg/mL,32 µg/mL,32 µg/mL,> 32 µg/mL,> 32 µg/mL,< 1 µg/mL,4 µg/mL,< 1 µg/mL,< 1 µg/mL,< 1 µg/mL,< 1 µg/mL,< 1 µg/mL,MIC (CREC5): 32 µg/mL; MIC (CRKP1): 32 µg/mL; MIC (CRKP2 [1]): 32 µg/mL; MIC (CRKP3): > 32 µg/mL; MIC (CRKP4): 16 µg/mL; MIC (CRKP5): 4 µg/mL; MIC (CRKP6): 4 µg/mL; MIC (PRCB1): < 1 µg/mL
"C[C@@H](O)[C@H]1C(=O)N2C(C(=O)O)=C(S[C@@H]3CN[C@H](C(=O)N(C)C)C3)[C@H](C)[C@H]12 [MEM, meropenem]",> 32 µg/mL,> 32 µg/mL,32 µg/mL,32 µg/mL,32 µg/mL,> 32 µg/mL,16 µg/mL,32 µg/mL,> 32 µg/mL,32 µg/mL,32 µg/mL,16 µg/mL,8 µg/mL,< 1 µg/mL,2 µg/mL,< 1 µg/mL,< 1 µg/mL,< 1 µg/mL,< 1 µg/mL,< 1 µg/mL,"MIC (CREC5): 32 µg/mL; MIC (CRKP1): > 32 µg/mL; MIC (CRKP2 [1]): > 32 µg/mL; MIC (CRKP3): > 32 µg/mL; MIC (CRKP4): 32 µg/mL; MIC (CRKP5): 32 µg/mL; MIC (CRKP6): > 32 µg/mL; MIC (PRCB1): < 1 µg/mL; bacterial titers in the liver, spleen, lung, and kidneys compared to the infection group (CRKP2 [4]): only slightly lower"
